According to patent publication US8784911B2, “Compositions for treatment and prevention of diabetic complications using Osteomeles schwerinae” (Korea Institute of Oriental Medicine, priority 2009, dated 2014):
Read-outs that look alike come from different tables or passages of the source.

Columns and labels:
[1] = system: advanced glycation endproduct generation (bovine serum albumin with fructose and glucose); assay: In vitro inhibitory effect on advanced glycation endproduct generation (BSA + fructose/glucose, fluorescence); type: biochemical
Description: Inhibitory effect of Osteomeles schwerinae small twig/leaf extract, fractions thereof obtained from each of hexane layer, ethyl acetate layer, butanol layer and water layer of the extract, and Osteomeles schwerinae seed extract on advanced glycation endproduct generation was investigated in vitro. Bovine serum albumin (BSA, Sigma, USA) was used as a protein source. BSA was added to 50 mM phosphate buffer (pH 7.4) at the concentration of 10 mg/ml. As a sugar source, the mixed solution of 0.2 M fructose and 0.2 M glucose was used. The mixed solution of fructose and glucose was added to the BSA solution. Osteomeles schwerinae small twig/leaf extract was prepared at different concentrations of 5 μg/ml, 10 μg/ml and 25 μg/ml. Hexane layer was also prepared at the concentrations of 10 μg/ml, 25 μg/ml and 50 μg/ml. Ethyl acetate layer was prepared at different concentrations of 5 μg/ml, 10 μg/ml and 25 μg/ml. Butanol layer and water layer were respectively prepared at the concentrations of 2.5 μg/ml, 5 μg/ml and 10 μg/ml. Osteomeles schwerinae seed extract was also prepared at different concentrations of 5 μg/ml, 10 μg/ml and 25 μg/ml. (All of those compounds were dissolved in DMSO, to which 15% tween 80 was added. At this time, the content of DMSO was 0.2%). Each extract or fraction was mixed with the mixed solution of BSA and sugars, followed by culture at 37° C. for 14 or 28 days. At this time, 0.02% sodium azide and antimycotics were added thereto as the antibacterial and antifungal agent. For the control, the mixed solution of BSA and sugars was cultured. The blank groups of each experimental and the control were composed as the above but not cultured. For the positive control, which would be used as an index for the comparison of the effect, aminoguanidine was used. To avoid error, 4 of each culture solution were prepared. 14 or 28 days later, the content of advanced glycation endproducts generated in each culture solution was measured and compared. AGEs therein were fluorescent and brown colored. They have physiochemical properties for the cross-linking and also have ligand that can be recognized by cell membrane receptor. The amount of AGEs having the said properties was measured with microplate reader (Excitation: 350 nm, Emission: 450 nm) to analyze the inhibitory effect on the generation of AGEs (Vinson, J. A. et al., J. Nutr. Biochem., 7: 659-663, 1996).
Inhibitory rate of generation was calculated by the following formula. Inhibitory rate of generation(%)=100−(fluorescence intensity of experimental group sample−fluorescence intensity of empty sample)/(fluorescence intensity of control group sample−fluorescence intensity of control group empty sample)×100
Aminoguanidine was dissolved in distilled water and then cultured at the concentrations of 37 μg/ml, 55.5 μg/ml and 74 μg/ml at 37° C. for 14 days and also cultured at the concentrations of 18.5 μg/ml, 37.0 μg/ml and 92.5 μg/ml for 28 days by the same manner as described above. The amount of advanced glycation endproducts generated in each culture solution was measured with microplate reader (Excitation: 350 nm, Emission: 450 nm). Inhibitory effect of Osteomeles schwerinae small twig/leaf extract, its fractions and Osteomeles schwerinae seed extract on advanced glycation endproduct generation was measured in vitro by the same manner as described above and the results are shown in Table 2.

[2] = molecular target: T1, aldose reductase (Rattus norvegicus, UniProt P07943); assay: In vitro inhibitory effect on aldose reductase activity; type: biochemical, SD rat; conditions: for inhibition of aldose reductase activity: compounds isolated from Osteomeles schwerinae extract
T1 construct: To obtain natural aldose reductase from eyeballs of SD rat; from tissue; host or cells: lens of Sprague-Dawley rat (homogenate supernatant)
Description: To obtain natural aldose reductase from eyeballs of SD rat (Sprague-Dawley rat, 250-280 g) by the method of Dufrane (1984), the extracted lens were pulverized together with 135 mM Na, K-phosphate buffer (pH 7.0), and 10 mm 2-mercaptoethanol using homogenizer and sonicater. After performing centrifugation at 14000 rpm for 30 minutes, the supernatant was filtered with 0.2 μm filter at 4° C. Quantification was performed by Lowry method using BSA as a protein source of enzyme. The mixture of 135 mM Na, K-phosphate buffer (pH 7.0), 100 mM lithium sulfate, 0.03 mM NADPH, 0.04 mM DL-glyceraldehyde and 100 μg/ml enzyme was dissolved in 0.1% DMSO, which was added to 50 μl of each sample diluted at different concentrations. Total volume of the mixture was adjusted to 1 ml, followed by reaction at 37° C. for 10 minutes. […] The reaction was terminated by adding 0.3 ml of 0.5 N HCl, to which 1 in of 6 M NaOH supplemented with 10 mM imidazole wad added, followed by reaction at 60° C. for 10 minutes. Then, conversion rate (NADP fluorescent product) was measured. Each sample was tested in triplicate. Inhibition effect was measured by using spectrofluorophotometric detector (Ex. 360 nm, Em. 460 nm, Bio-TEK, Synergy HT, USA) and the results were presented as IC50.

[3] = system: type I diabetes animal model induced by streptozotocin (STZ); assay: Type I diabetes animal model induced by streptozotocin; type: in vivo, SD rat
Description: Fully adapted (for 1 week) SD rats (6 weeks, 180-200 g) were used. After adaptation, the rats were fasted for 16 hours. Before the administration of samples, streptozotocin dissolved in 0.1 M citrate buffer (pH 4.5) was treated once by peritoneal injection (60 mg/kg). A week after the peritoneal injection, blood glucose level was measured at fasted or non-fasted state. Rats showing blood glucose level of at least 250 mg/dl at fasted state were selected and distributed fairly with considering the average. 5 groups were prepared as follows: the normal group treated with nothing (presented as Nor), the normal group treated with 200 mg/kg of Osteomeles schwerinae extract (presented as N+OS-141), the group induced with diabetes (presented as DM), the diabetes group treated with 100 mg/kg of Osteomeles schwerinae extract (presented as OS-100), and the positive control group treated with aminoguanidine (presented as AG). Osteomeles schwerinae extract and aminoguanidine were dissolved in water, which were administered orally to the rats every day (5 ml/kg) for 8 weeks. 8 weeks later, the animals were fasted, followed by autopsy. Blood was drawn from saphenons vein. Plasma was separated by centrifuging the whole blood at 3000 rpm at 4° C. The plasma was stored at −70° C. for the later use for data analysis. Each organ was weighed and frozen by using liquid nitrogen, which was stored at 70° C.
Urine was taken for 24 hours on the last week before autopsy to comparatively observe renal function indices and oxidative stress factors. ELISA was performed to measure AGEs and podocyte (synaptopodin). Urine was mixed with coating buffer (50 mM carbonate buffer, pH 9.6) at the ratio of 1:2, which was distributed in 96 well plate (100 μl/well). After incubating the plate at 37° C. for 3 hours, the plate was washed with 0.05% PBST three times, and blocked with 3% skim milk. The plate was stood for one hour and then washed. AGEs (Transgenic, Japan) and synaptopodin (Santa Cruz, USA) antibody were diluted at the ratio of 1:1000 respectively, followed by loading in each well of the plate by 100 μl, which stood at 37° C. for 2 hours. After washing the plate with 0.05% PBST, HRP-conjugated 2nd antibody was loaded in each well of the plate by 100 μl, which stood at 37° C. for 1 hour. 3,3′,5,5′-tetramethylbenzidine (TMB) was added in each well of the plate by 100 μl. Five minutes later, reaction termination solution (1M H2SO4) was added in each well of the plate by 100 μl and then OD was measured with ELISA reader. Albuminuria and creatinine (Cr) used as renal function indices were measured.
Kidney was extracted during autopsy, which was fixed in 10% neutralized formalin, followed by dehydration. The kidney was substituted with xylene three times, followed by embedding with paraffin. The embedded tissue block was cut into 4 μm sections, which were placed on microscope slide. PAS staining was performed to observe morphological changes. The stained slide was observed under optical microscope. […] To investigate fibrosis by collagen infiltrated in kidney cortex, Masson's trichrome staining was performed. Multiple numbers of collagen stained as blue by Masson's trichrome were observed around glomerular, basement membrane and in interstitial area between renal tubules in the diabetes group, but the difference was not significant from that of the normal group. […] Histological changes were traced 8 weeks after inducing diabetes. […]

[4] = 24 h urine, last week, vs diabetes group
[5] = STZ diabetic rats, 100 mg/kg oral daily, 8 weeks

## Oc1cc(O)c2c(c1)O[C@H](c1ccc(O)c(O)c1)[C@H](O)C2 [(−)-epicatechin]
[1]
  inhibition of advanced glycation endproduct generation: confirmed to inhibit
[2]
  inhibition of aldose reductase activity: confirmed to inhibit

## O=C(O)CC1(CC(=O)O)CCCC1 [3,3-tetramethyleneglutaric acid]
[2]; 3.72 μg/ml (20 μm)
  inhibition at 3.72 µg/mL: 39.3 ± 4.17%
[2]; 4.66 μg/ml (25 μm)
  inhibition at 4.66 µg/mL: 55.7 ± 3.25%
[2]; 5.59 μg/ml (30 μm)
  inhibition at 5.59 µg/mL: 60.3 ± 1.39%
[2]; read-out: inhibitory effect (IC50) on aldose reductase
  IC50: 24.1 µM
[2]; read-out: inhibitory effect (IC50, μg/ml) on aldose reductase (converted)
  IC50: 24.2 µM

## CC(=O)OC1C(c2c(O)cc(O)c3c(=O)cc(-c4ccc(O)cc4)oc23)OC(CO)C(O)C1O (centres unmarked) [2-O-acetylvitexin]
[1]; compounds isolated from Osteomeles schwerinae extract
  inhibition of advanced glycation endproduct generation: confirmed to inhibit
[2]
  inhibition of aldose reductase activity: confirmed to inhibit

## C=C(C)C1CCC2(CO)CCC3(C)C(CCC4C5(C)CCC(OC(=O)C=Cc6ccc(O)c(O)c6)C(C)(C)C5CCC43C)C12 (stereo not drawn) [betuline-3β-yl-caffeate]
[1]
  inhibition of advanced glycation endproduct generation: confirmed to inhibit
[2]
  inhibition of aldose reductase activity: confirmed to inhibit

## N=C(N)NN [Aminoguanidine]
[1]; 14 day
  inhibitory effect (IC50, μg/ml): 71.13 µg/mL
[1]; 14 day, 37 μg/ml
  Inhibitory effect (%): 27.42 ± 1.51%
[1]; 14 day, 55.5 μg/ml
  Inhibitory effect (%): 39.96 ± 0.90%
[1]; 14 day, 74 μg/ml
  Inhibitory effect (%): 51.77 ± 1.91%
[1]; 28 day
  inhibitory effect (IC50, μg/ml): 91.30 µg/mL
[1]; 28 day, 18.5 μg/ml
  Inhibitory effect (%): 14.89 ± 4.11%
[1]; 28 day, 37.0 μg/ml
  Inhibitory effect (%): 24.93 ± 3.46%
[1]; 28 day, 92.5 μg/ml
  Inhibitory effect (%): 50.41 ± 0.41%
[3]; 100 mg/kg
  expressions of AGEs and RAGE in kidney: significantly reduced
[3]; 100 mg/kg, vs diabetes group
  podocyte loss in glomerulus, synaptopodin and WT1 staining: podocyte loss was reduced
[3]; 8 weeks
  fibrosis by collagen in kidney cortex, Masson's trichrome staining: such change was not peculiar
[3]; 8 weeks, vs untreated diabetes group
  glomerular basement membrane thickening, PAS staining: any change in glomerular basement membrane thickening was not observed
[3]; [4]
  Albuminuria: decreased significantly
  Urine alb/Cr: decreased
[3]; STZ diabetic rats, 100 mg/kg
  Body weight (g) Initial: 244.3 ± 4.02 g
[3]; [5]
  ALT (U/L): 158.9 ± 26.25 U/L
  AST (U/L): 341.6 ± 70.90 U/L
  Body weight (g) Final: 210.3 ± 9.98 g
[3]; vs diabetes group
  8-OHdG in kidney: reduced in the group treated with AG, but the decrease was not that significant

## C=C(C)C1CCC2(C(=O)O)CCC3(C)C(CCC4C5(C)CCC(OC(=O)C=Cc6ccc(O)c(O)c6)C(C)(C)C5CCC43C)C12 (stereo not drawn) [betulinic acid-3β-yl-caffeate]
[1]
  inhibition of advanced glycation endproduct generation: confirmed to inhibit
[2]
  inhibition of aldose reductase activity: confirmed to inhibit
